Results as given in paper PMC10905675, “INX-315, a Selective CDK2 Inhibitor, Induces Cell Cycle Arrest and Senescence in Solid Tumors” (Cancer Discovery, 2023).

Assays:
Water solubility = format: physicochemical
[1] = Body weight of tumor-bearing mice; format: in vivo; settings: mice treated with INX-315, CCNE1-amplified models
Description: PDX models were performed by Crown Biosciences (OV5398, GA0103, and GA0114) or XenoSTART (ST4316B). Tumor fragments from stock mice were harvested and implanted subcutaneously into the flank of NOD/SCID mice (OV5398, RRID:IMSR_JAX:001303), BALB/c nude mice (GA0103 and GA0114, RRID:IMSR_RJ:BALB-C-NUDE), or athymic nude mice (Crl:NU(NCr)-Foxn1nu, RRID:IMSR_CRL:490) (ST4316B). For CDX models, female athymic nude mice (Crl:NU(NCr)-Foxn1nu, RRID:IMSR_CRL:490) were inoculated with 1 × 10^7 50% Cultrex OVCAR3 cells in the flank. Experiments performed using MMTV-rtTA/tetO-HER2 mice were performed at the Peter MacCallum Cancer Centre. Tumor formation was induced and sustained in female mice with doxycycline as previously described ([33]). Randomization and treatment in all models began when median tumor volume reached a maximum of 300 mm^3.
Mice were treated via oral gavage. INX-315 was prepared weekly in 100% PEG400; abemaciclib was prepared as previously described ([33]) and ribociclib (Selleckchem, S7440) was prepared weekly in 0.5% methyl cellulose. To generate abemaciclib-resistant MMTV-rtTA/tetO-HER2 tumors, mice were treated continuously with abemaciclib at a dose of 75 mg/kg until tumors resumed growth as described in text. […]

For `NS(=O)(=O)c1ccc(Nc2ncc3cc4n(c3n2)C2(CCCCC2)C(=O)NN4)cc1` [INX-315], the solubility (Water solubility) was under 50 µg/mL and the “loss of body weight during the studies” value [1] was at most 5%.
